Patent US5744476A, “Dopamine D1 agonists for the treatment of dementia” (Interneuron Pharmaceuticals, Inc., priority 1994, dated 1998)
Entries after “also recorded” stand apart in the source; their conditions may differ. Like-named read-outs stand apart in the source and are kept apart here.

Key:
[1] = tested on: MPTP-induced parkinsonism model in primates; details: cited from earlier work
monkeys = details: cited from earlier work
striatal acetylcholine = assay: In vivo microdialysis, striatal ACh release; design: species or system Male Sprague-Dawley rats; details: for dialysate concentrations of striatal ACh / duration of increase of dialysate concentrations of striatal ACh: i.p.; for duration of increase of dialysate concentrations of striatal ACh: post-injection; for stimulatory effect of DHX on striatal ACh release (blockade): low dose in combination with DHX
Excerpt: (§1) The in vivo microdialysis technique is a method for evaluating the effects of drugs on brain neurotransmitter systems by monitoring the extracellular concentration of neurotransmitters and metabolites in awake freely-moving animals. Probes are implanted directly into the brain of rats and serve to continuously sample the extracellular fluid in the vicinity of the probe. Samples containing the dialyzed extracellular fluid are collected at the outlet of the perfusion system and analyzed for content of brain neurotransmitters and metabolites by high-performance liquid chromatography coupled with electrochemical detection (HPLC-EC).
Male Sprague-Dawley rats weighing 250-350 g were group housed (n=3 per cage) in a temperature-controlled room (23±2° C.) on a 14/10 hr light cycle with free access to food and water. After the surgical procedure, animals were placed in individual cages.
The surgical procedure involved the implantation and fixation of a probe holder/guide cannula to the skull of anesthetized rats. The guide cannula was the attachment site for the rigid concentric microdialysis probes which were implanted into the awake, fully-recovered rat at the onset of the experiment. […] For placement of the guide cannulae, rats were anesthetized with ketamine:xylazine (87:13 mg/kg), shaved and placed in a stereotaxic frame (Narashige Instruments). An incision was made to expose the skull and a small hole was drilled to expose the dura mater for placement of the guide. Guide cannulae were implanted in the striatum according to the following stereotaxic coordinates with reference to bregma: AP -+1.5 mm, L -+2.6 mm and V to dura -2.5 mm (Paxinos and Watson, The rat brain in stereotaxic coordinates, 2nd. ed., Academic Press, London, 1986). The microdialysis probe extended 3.0 mm beyond the tip of the guide cannula which yielded a final ventral placement of 5.5 mm below the dura. The coordinates for placement of the guide into frontal cortex were: AP -+3.0 mm, L -+2.8 mm and V to dura 0 mm, with the probe extending 3.0 mm below the dura. Guide cannulae were fixed to the skull with dental acrylic and anchor screws and a dummy cannula was inserted into each guide for the recovery period. Animals were returned to their home cage and allowed to recover from surgery for 24-48 hrs.
For each experiment, the dialysis probe was connected to a microinfusion pump (CMA-100; Bioanalytical Systems (BAS); W. Lafayette, Ind.) equipped with a liquid switch (CMA-110; BAS) via low dead volume fused-silica tubing (I.D.=75 um; O.D.=150 um). At the time of experiment, the dummy cannula was removed and the probe was inserted through the guide into the conscious animal under light restraint.
The probe was perfused continuously with artificial CSF (composition in Mm: 121 NaCl, 3.5 KCl, 1.2 CaCl2, 1.2 MgCl2, 1.0 NaH2 PO4, 25 NaHCO3, and 0.001 neostigmine) at a flow rate of 1.5 ul/min. Dialysate samples were collected every 20 min (total sample volume=30 μl). A 20 ul aliquot was analyzed immediately for acetylcholine (ACh) content by high-performance liquid chromatography with electrochemical detection (HPLC-EC) (see below for details). A baseline period of at least one hour was allowed prior to invoking any experimental manipulations. […] Sample collection proceeded for a minimum of 3 hrs following drug administration. Upon completion of the experiment, animals were sacrificed by decapitation and brains examined grossly to verify probe placement.
(§2) DHX and SKF 81297, another D1 agonist (Andersen et al., Eur J Pharmacol 188:335, 1990), were administered ip after a stable baseline of ACh release was established in each animal. […] The effects of DHX on ACh release were evaluated in two brain regions associated with cognition (striatum, frontal cortex).

[2] = Concentration of DHX in brain and plasma over time; type: in vivo, rat; details: 10 mg/kg
Excerpt: (§3) The test protocol followed is disclosed in Ungerstedt, Acta Physiol. Scand. 82 Supp. 367, p. 49-68 (1971). […] This activity may reside in one or more optical isomers of such a metabolite.

dopamine D1 receptor = details: cited from earlier work
6-OHDA-lesioned rats = assay: Rotational behavior in 6-OHDA-lesioned rats (rodent model of PD); type: in vivo, rat; details: 10 mg/kg
Excerpt: as §3

adenylate cyclase = details: cited from earlier work
[3] = tested on: acetylcholine release in the frontal cortex; assay: In vivo microdialysis, frontal cortex ACh release; design: species or system Male Sprague-Dawley rats
Excerpt: as §1, with “(HPLC-EC). […]” for “(HPLC-EC).”
The probe was perfused continuously with artificial CSF (composition in Mm: 121 NaCl, 3.5 KCl, 1.2 CaCl2, 1.2 MgCl2, 1.0 NaH2 PO4, 25 NaHCO3, and 0.001 neostigmine) at a flow rate of 1.5 ul/min. […] A 20 ul aliquot was analyzed immediately for acetylcholine (ACh) content by high-performance liquid chromatography with electrochemical detection (HPLC-EC) (see below for details). […]
as §2, with “cortex). […]” for “cortex).”

[4] = tested on: scopolamine-induced deficits (rats); assay: Passive avoidance in rats, scopolamine-induced amnesia (step-through latency); details: scopolamine 3.0 mg/kg
cortical ACh release = details: in vivo; cited from earlier work
animals = details: cited from earlier work; for memory-improving effect of nigrostriatal self-stimulation or of d-amphetamine (blockade): in vivo
striatal ACh output = details: cited from earlier work
[5] = tested on: CADs due to lesions of the medial projection of the basal forebrain to the cortex; details: cited from earlier work
[6] = tested on: behavioral effects previously associated with D2 antagonists; details: in vivo; cited from earlier work
rodents = details: cited from earlier work; for retention of win-stay and win-shift tasks: Packard and White, 1989
[7] = tested on: choice accuracy deficits (CADS) due to scopolamine; details: radial arm maze; cited from earlier work
PD patients = details: clinical; cited from earlier work

Oc1cc2c(cc1O)[C@@H]1c3ccccc3CN[C@H]1CC2 (relative stereo) [DHX, trans-10,11-dihydroxy-5,6,6a,7,8,12b-hexahydrobenzo[a]phenanthridine]
eye blink rates ([1]; 0.3 to 0.93 mg/kg, im): increasing eye blink rates | parkinsonian signs (tremor, motor freezing, abnormal posture, rigidity, bradykinesia) ([1]; 0.3 to 0.93 mg/kg, im): dramatically attenuated parkinsonian signs | activity in the MPTP-induced parkinsonism model ([1]; primates): potent activity in the MPTP-induced parkinsonism model in primates | spatial working memory (monkeys; young, intact monkeys): produced improvements in young, intact monkeys | dialysate concentrations of striatal ACh (striatal acetylcholine; 3.0 mg/kg): increase in dialysate concentration of striatal acetylcholine; also recorded: increase dialysate concentrations of striatal ACh | duration of increase of dialysate concentrations of striatal ACh (striatal acetylcholine; 3.0 mg/kg): at least 180 min | dialysate concentrations of striatal ACh (striatal acetylcholine; 10 mg/kg): increase in dialysate concentration of striatal acetylcholine; also recorded: increase dialysate concentrations of striatal ACh | duration of increase of dialysate concentrations of striatal ACh (striatal acetylcholine; 10 mg/kg): at least 180 min | striatal ACh release (striatal acetylcholine; 17.5 mg/kg): appears to be less than that evoked by lower doses | levels of DHX in the brain and plasma [2]: diminished | affinity for D1 receptor (dopamine D1 receptor; D1): nanomolar affinity | selectivity for the D1 over the D2 receptor (dopamine D1 receptor): 12- to 60 fold | biological activity in a rodent model of PD (rotational behavior), persistence (6-OHDA-lesioned rats): persists long after the levels of DHX in the brain and plasma have diminished | potency in the stimulation of adenylate cyclase versus dopamine (adenylate cyclase; versus dopamine): approximately 70 times more potent | efficacy in the stimulation of adenylate cyclase versus dopamine (adenylate cyclase; versus dopamine, in words): as efficacious | ACh release in the frontal cortex ([3]; injection of DHX): increase in acetylcholine release in the frontal cortex; also recorded: increased ACh release in the frontal cortex | step-through latency ([4]; DHX 0.1 mg/kg): increased step-through latency, however, these increases were not statistically-significant | step-through latency (reversal of scopolamine-induced deficits) ([4]; DHX 0.3 mg/kg, 10 min prior to training): significantly improve scopolamine-induced deficits; also recorded: significantly improved scopolamine-induced deficits in step-through latency | step-through latency ([4]; DHX 1.0 mg/kg): increased step-through latency, however, these increases were not statistically-significant

CN1Cc2ccccc2C2c3cccc4[nH]cc(c34)CC21 (single isomer, unassigned) [CY 208-243]
cortical ACh release (cortical ACh release): significantly increased cortical ACh release

NCCc1cc(O)c(O)cc1O [6-OHDA, 6-hydroxydopamine]
learning tasks after lesion of the nigrostriatal tract (animals; avoidance conditioning, Morris water maze): impair a variety of learning tasks | memory-improving effect of nigrostriatal self-stimulation or of d-amphetamine (blockade) (animals): blocked

Oc1cc2c(cc1O)[C@@H](c1ccccc1)CNCC2 [(+)-SKF 38393]
increase of striatal ACh output (striatal ACh output; systemic administration): 75%

CCCN1CCO[C@@H]2c3cc(O)ccc3CC[C@H]21 [PHNO]
cortical ACh release (cortical ACh release): no effect

CN1CCc2cc(Cl)c(O)cc2[C@@H](c2ccccc2)C1 [SCH23390]
choice accuracy deficits due to lesions [5]: reversed CADs due to lesions of the medial projection of the basal forebrain to the cortex | stimulatory effect of DHX on striatal ACh release (blockade) (striatal acetylcholine): completely block the stimulatory effect of DHX on striatal ACh release | stimulatory effect of DHX on striatal ACh release (blockade) (striatal acetylcholine; listed as SCH 23390): completely block the stimulatory effect of administering DHX on striatal acetylcholine release | D1 agonist-induced increase in cortical ACh release (blockade) (cortical ACh release): blocked selectively | effect of D1 agonist on striatal ACh output (blockade) (striatal ACh output; 0.3 mg/kg): blocked | stimulatory effect of DHX on ACh release in the frontal cortex (blockade) ([3]; low dose in combination with DHX, listed as SCH 23390): completely block the stimulatory effect of administering DHX on acetylcholine release in the frontal cortex; also recorded: sensitive to antagonism by SCH 23390 | behavioral effects [6]: mimic some of the behavioral effects previously associated with D2 antagonists

Oc1cc2c(cc1O)C(c1ccccc1)CNCC2 (centres unmarked) [SKF38393]
spatial working memory (monkeys; aged and reserpine-treated monkeys): improved spatial working memory in aged and reserpine-treated monkeys | selectivity for the D1 over the D2 receptor (dopamine D1 receptor): greater than 10 fold | retention of win-stay and win-shift tasks (rodents): but not SKF38393, improved retention of the tasks | efficacy in stimulating adenylate cyclase relative to dopamine (adenylate cyclase; as efficacious as dopamine): 30-50% | choice accuracy deficits due to scopolamine [7]: alleviated choice accuracy deficits (CADS) due to scopolamine

Oc1cc2c(c(Cl)c1O)CCNCC2c1ccccc1 (centres unmarked) [SKF 81297]
dialysate concentrations of striatal ACh (striatal acetylcholine; 3.0 mg/kg): increase in dialysate concentration of striatal acetylcholine; also recorded: elevated striatal ACh release

CN1[C@@H]2C[C@@H](OC(=O)[C@H](CO)c3ccccc3)C[C@H]1[C@@H]1O[C@@H]12 [Scopolamine]
acquisition of the passive avoidance task (deficit) ([4]; ip, 30 min prior to training): severe deficit in the acquisition of the passive avoidance task

CC(C)C[C@H]1C(=O)N2CCC[C@H]2[C@]2(O)O[C@](NC(=O)[C@@H]3C=C4c5cccc6[nH]c(Br)c(c56)C[C@H]4N(C)C3)(C(C)C)C(=O)N12 [bromocriptine]
efficacy in the treatment of PD (PD patients): either limited efficacy relative to levodopa or limited long-term efficacy

C[C@H](N)Cc1ccccc1 [d-amphetamine]
memory improvement (animals; indirect dopamine agonist): memory-improving effects | retention of win-stay and win-shift tasks (rodents): improved retention of the tasks | win-stay acquisition (rodents; post-training intracaudate injection): improved win-stay acquisition

N[C@@H](Cc1ccc(O)c(O)c1)C(=O)O [levodopa]
efficacy in the treatment of PD (PD patients): allowed PD patients to reach normal life expectancies

CCCN1C[C@H](CSC)C[C@@H]2c3cccc4[nH]cc(c34)C[C@H]21 [pergolide]
efficacy in the treatment of PD (PD patients): either limited efficacy relative to levodopa or limited long-term efficacy

O=c1[nH]c2ccccc2n1C1CCN(CCCC(c2ccc(F)cc2)c2ccc(F)cc2)CC1 [pimozide]
memory-improving effect of nigrostriatal self-stimulation or of d-amphetamine (blockade) (animals): blocked

CCCN1CCC[C@@H]2Cc3n[nH]cc3C[C@H]21 [quinpirole]
striatal ACh release (striatal acetylcholine; 2.0 mg/kg, data not shown): decreases striatal ACh release

CCN1CCC[C@H]1CNC(=O)c1c(O)c(Cl)cc(Cl)c1OC [raclopride]
effect of D1 agonist on striatal ACh output (potentiation) (striatal ACh output; administered 60 min after SKF 38393): potentiated
